Patent publication US20080188439A1, “Directed metabolism of compounds by glucuronidation and sulfonation donors to decrease toxicity” (priority 2006, published 2008)

What was measured:
[1] = tested on: C57B16/J male mice; test: Dose-response of APAP toxicity (LD60) in mice; type: in vivo
Procedure: In prior experiments in the laboratory, the LD60, of APAP was determined to be about 600 mgs/kg. The molecular weight of APAP is 151; therefore, the LD60, was about 4 mMol/Kg.

[2] = tested on: C57B16/J male mice; conditions: APAP 4 mMol/kg (600 mg/kg) IP plus 0.2 ml physiological saline; three of eight animals
[3] = cited from earlier work
[4] = cited from earlier work; remark: listed apart in the source
[5] = tested on: UDP-glucose dehydrogenase; conditions: UDP-glucose dehydrogenase reaction; cited from earlier work

| SMILES | LD60 ([1]; converted with molecular weight 151) | LD60 ([1]; prior experiments in the laboratory) | survival at 24 hours, APAP/saline (control group) [2] [%] | share of circulating acetaminophen undergoing Phase II glucuronide conjugation ([3]; adult, normal (non-saturated) conditions) | share of circulating acetaminophen undergoing Phase II sulfonate conjugation ([3]; adult) | share of circulating acetaminophen undergoing Phase I metabolism by cytochrome P-450 enzymes ([3]; normal conditions) | median half-life after an overdose ([4]; 112 patients, overdose) [h] | time of maximal blood concentrations after ingestion ([4]; human, oral) [min] | experimental half-life (t0.5 β) ([4]; human, single oral dose of 1-3 gms) [h] | volume of distribution ([4]; human) | share of a therapeutic dose biotransformed in the liver ([4]; therapeutic dose) [%] | share of the toxic dose excreted in the first 24 hours ([4]; toxic dose, first 24 hours) | Km [5] [µM] |
| --- | --- | --- | --- | --- | --- | --- | --- | --- | --- | --- | --- | --- | --- |
| CC(=O)Nc1ccc(O)cc1 [APAP, N-acetyl-p-aminophenol] | about 4 mMol/Kg | about 600 mgs/kg | 37.5 | approximately 55% | approximately 30% | Five | 5.4 | 20 to 80 | 1.75 to 2.67 | approximately 0.95 L/Kg | 95 | over 90% | – |
| NC(=O)c1ccc[n+]([C@@H]2O[C@H](COP(=O)([O-])OP(=O)(O)OC[C@H]3O[C@@H](n4cnc5c(N)ncnc54)[C@H](O)[C@@H]3O)[C@@H](O)[C@H]2O)c1 [NAD^+, nicotinamide adenine dinucleotide] | – | – | – | – | – | – | – | – | – | – | – | – | 424 |
